Experimental data as given in ChEMBL document CHEMBL1201862, “PubChem BioAssay data set” (2004).
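Step 1: Grow cells in 96-well plates. Step 2: Expose to compound for 48 hours at 5 concentrations. Step 3: Interpolate endpoints linearly; if unreached, use highest concentration. At the GI50, growth is halved.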 Calls of active or inactive are those of the source. Rule as the data show it: active = GI50 up to about 1.1 µM and inactive = higher.

How the values were obtained:
Test in all cases: DTP human tumour cell line panel, 48 h
[1] = system: 786-0
[2] = system: A498
[3] = system: A549
[4] = system: ACHN
[5] = system: CAKI-1
[6] = system: CCRF-CEM
[7] = system: COLO 205
[8] = system: DLD-1
[9] = system: DMS-114
[10] = system: DMS-273
[11] = system: EKVX
[12] = system: HCC 2998
[13] = system: HCT-15
[14] = system: HL-60
[15] = system: HOP-18
[16] = system: HOP-62
[17] = system: HOP-92
[18] = system: HT-29
[19] = system: IGROV-1
[20] = system: K562
[21] = system: KM-20L2
[22] = system: KM12
[23] = system: LOX IMVI
[24] = system: LXFL 529
[25] = system: M14
[26] = system: M19-MEL
[27] = system: MOLT-4
[28] = system: Malme-3M
[29] = system: NCI-H226
[30] = system: NCI-H23
[31] = system: NCI-H460
[32] = system: NCI-H522
[33] = system: OVCAR-3
[34] = system: OVCAR-4
[35] = system: OVCAR-5
[36] = system: OVCAR-8
[37] = system: RPMI-8226
[38] = system: RXF 631
[39] = system: SF-268
[40] = system: SF-295
[41] = system: SF-539
[42] = system: SK-MEL-28
[43] = system: SK-MEL-2
[44] = system: SK-MEL-5
[45] = system: SK-OV-3
[46] = system: SN12C
[47] = system: SNB-19
[48] = system: SNB-75
[49] = system: SNB-78
[50] = system: SW-620
[51] = system: TK-10
[52] = system: U-251
[53] = system: UACC-257
[54] = system: UACC-62
[55] = system: UO-31
[56] = system: XF498
[57] = system: BT-549
[58] = system: DU-145
[59] = system: HCT-116
[60] = system: Hs-578T
[61] = system: MCF7
[62] = system: MDA-MB-231
[63] = system: MDA-MB-435
[64] = system: MDA-N
[65] = system: NCI/ADR-RES
[66] = system: PC-3
[67] = system: RXF 393
[68] = system: SR
[69] = system: T47D

Measured: GI50

NC(=O)c1csc(C2OC(COP(=O)(O)CP(=O)(O)OCC3OC(n4cnc5c(N)ncnc54)C(O)C3O)C(O)C2O)n1 (stereo not drawn)
78.3 µM: [13]
inactive: [1] > 100 µM | [2] > 100 µM | [3] > 100 µM | [4] > 100 µM | [5] > 100 µM | [6] > 100 µM | [7] 91.2 µM | [8] > 100 µM | [9] > 100 µM | [10] 85.5 µM | [11] > 100 µM | [12] > 100 µM | [14] > 100 µM | [15] > 100 µM | [16] > 100 µM | [17] > 100 µM | [18] 87.7 µM | [19] > 100 µM | [20] 55.3 µM | [21] > 100 µM | [22] > 100 µM | [23] 97.1 µM | [24] > 100 µM | [25] > 100 µM | [26] > 100 µM | [27] > 100 µM | [28] > 100 µM | [29] > 100 µM | [30] > 100 µM | [31] > 100 µM | [32] 68.1 µM | [33] > 100 µM | [34] > 100 µM | [35] > 100 µM | [36] > 100 µM | [37] > 100 µM | [38] > 100 µM | [39] > 100 µM | [40] 53.7 µM | [41] > 100 µM | [42] > 100 µM | [43] > 100 µM | [44] > 100 µM | [45] > 100 µM | [46] > 100 µM | [47] > 100 µM | [48] > 100 µM | [49] > 100 µM | [50] > 100 µM | [51] > 100 µM | [52] > 100 µM | [53] > 100 µM | [54] > 100 µM | [55] > 100 µM | [56] > 100 µM

COc1cc2c[n+](C)c3c4ccccc4ccc3c2cc1OC.COc1cc2cnc3c4ccccc4ccc3c2cc1OC
> 100 µM: [13]
inactive: [1] 12.3 µM | [3] 2.54 µM | [4] 73.1 µM | [57] 6.85 µM | [5] 58.6 µM | [6] 6.47 µM | [7] 2.86 µM | [8] 31.3 µM | [9] 2.31 µM | [10] 2.88 µM | [58] 5.68 µM | [11] 2.2 µM | [12] 8.47 µM | [59] 7.83 µM | [14] 42.7 µM | [15] 23.3 µM | [16] 19.1 µM | [17] 10.6 µM | [18] 7.59 µM | [60] 2.31 µM | [19] 11.8 µM | [20] 9.55 µM | [21] 8.81 µM | [23] 11.5 µM | [24] 2.21 µM | [25] 20.2 µM | [26] 3.85 µM | [61] 1.79 µM | [62] 2.79 µM | [63] 2.87 µM | [64] 7.05 µM | [27] 1.46 µM | [28] 3.21 µM | [29] 13.1 µM | [30] 12.2 µM | [31] 11.6 µM | [32] 1.22 µM | [65] 10 µM | [33] 4.13 µM | [34] 21.7 µM | [35] 17.3 µM | [36] 12.1 µM | [66] 2.84 µM | [37] 8.11 µM | [67] 21.2 µM | [38] 23 µM | [40] 19.6 µM | [41] 10 µM | [42] 5.5 µM | [43] 9.82 µM | [44] 14.9 µM | [45] 9.29 µM | [46] 2.84 µM | [47] 3.94 µM | [48] 3.54 µM | [68] 4.42 µM | [50] 4.34 µM | [69] 3.14 µM | [51] 26.6 µM | [52] 3.05 µM | [53] 20 µM | [54] 6.68 µM | [55] 66.1 µM | [56] 5.69 µM
active: [22] 0.859 µM | [39] 0.592 µM
